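Values below derive from 48-hour exposures of cells grown in 96-well plates, with endpoints linearly interpolated between the two concentrations bracketing the appropriate inhibition level. Abbreviation: GI50, concentration required for 50% inhibition of growth.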 Activity calls are given as the source filed them. Cut-off read from the data, not from the text of the source: active = GI50 up to about 1.1 µM and inactive = higher.
How the values were obtained:
Experiment in all cases: NCI tumour cell line growth inhibition, 48 h
786-0 = tested on: 786-0
ACHN = tested on: ACHN
CAKI-1 = tested on: CAKI-1
EKVX = tested on: EKVX
HCT-15 = tested on: HCT-15
HL-60 = tested on: HL-60
HOP-92 = tested on: HOP-92
MDA-N = tested on: MDA-N
MOLT-4 = tested on: MOLT-4
OVCAR-4 = tested on: OVCAR-4
PC-3 = tested on: PC-3
RPMI-8226 = tested on: RPMI-8226
RXF 393 = tested on: RXF 393
SF-268 = tested on: SF-268
SK-MEL-28 = tested on: SK-MEL-28
SK-OV-3 = tested on: SK-OV-3
SN12C = tested on: SN12C
A498 = tested on: A498
MDA-MB-231 = tested on: MDA-MB-231
LOX IMVI = tested on: LOX IMVI

| SMILES | GI50 (786-0) | GI50 (ACHN) | GI50 (CAKI-1) | GI50 (EKVX) | GI50 (HCT-15) | GI50 (HL-60) | GI50 (HOP-92) | GI50 (MDA-N) | GI50 (MOLT-4) | GI50 (OVCAR-4) | GI50 (PC-3) | GI50 (RPMI-8226) | GI50 (RXF 393) | GI50 (SF-268) | GI50 (SK-MEL-28) | GI50 (SK-OV-3) | GI50 (SN12C) | GI50 (A498) | GI50 (MDA-MB-231) | GI50 (LOX IMVI) |
| --- | --- | --- | --- | --- | --- | --- | --- | --- | --- | --- | --- | --- | --- | --- | --- | --- | --- | --- | --- | --- |
| Cc1cccc2nc3n(c12)C(=O)c1ccccc1-3 | > 100 µM (inactive) | > 100 µM (inactive) | > 100 µM (inactive) | 91.4 µM (inactive) | > 100 µM | > 100 µM (inactive) | > 100 µM (inactive) | 43.2 µM (inactive) | > 100 µM (inactive) | > 100 µM (inactive) | > 100 µM (inactive) | > 100 µM (inactive) | > 100 µM (inactive) | > 100 µM (inactive) | > 100 µM (inactive) | > 100 µM (inactive) | > 100 µM (inactive) | – | – | – |
| CC(C)c1ccc2nc3ccc(C(=O)NCCN4CCN(c5ccccc5)CC4)cn3c(=O)c2c1 | 3.21 µM (inactive) | – | 5.06 µM (inactive) | > 100 µM (inactive) | 6.38 µM | – | – | 4.6 µM (inactive) | 1.87 µM (inactive) | > 100 µM (inactive) | 2.37 µM (inactive) | – | – | > 100 µM (inactive) | 2.82 µM (inactive) | > 100 µM (inactive) | – | 29.9 µM (inactive) | > 100 µM (inactive) | – |
| COc1ccc(CCc2ccccc2CC(=O)O)cc1 | > 100 µM (inactive) | > 100 µM (inactive) | > 100 µM (inactive) | > 100 µM (inactive) | > 100 µM | > 100 µM (inactive) | > 100 µM (inactive) | – | > 100 µM (inactive) | > 100 µM (inactive) | – | > 100 µM (inactive) | > 100 µM (inactive) | > 100 µM (inactive) | > 100 µM (inactive) | > 100 µM (inactive) | > 100 µM (inactive) | > 100 µM (inactive) | – | > 100 µM (inactive) |
| COC(=O)[C@H]1C[C@H]1NC(=O)C(CC(=O)OCc1ccccc1)NC(=O)OCc1ccccc1 (some centres undefined) | > 100 µM (inactive) | 36.8 µM (inactive) | – | 44.3 µM (inactive) | 73.1 µM | 17.9 µM (inactive) | – | 60.1 µM (inactive) | 29.2 µM (inactive) | – | 35.3 µM (inactive) | 19.1 µM (inactive) | – | 55.2 µM (inactive) | 53.7 µM (inactive) | 55 µM (inactive) | > 100 µM (inactive) | 61.8 µM (inactive) | > 100 µM (inactive) | 83 µM (inactive) |
| OC1=CN=COc2ccccc21 | > 100 µM (inactive) | > 100 µM (inactive) | – | > 100 µM (inactive) | > 100 µM | > 100 µM (inactive) | > 100 µM (inactive) | – | > 100 µM (inactive) | > 100 µM (inactive) | – | > 100 µM (inactive) | > 100 µM (inactive) | > 100 µM (inactive) | > 100 µM (inactive) | 50.6 µM (inactive) | > 100 µM (inactive) | > 100 µM (inactive) | – | > 100 µM (inactive) |
| O=C(NCCCCNCCCNC(=O)C(F)(F)F)C(F)(F)F | > 100 µM (inactive) | > 100 µM (inactive) | > 100 µM (inactive) | > 100 µM (inactive) | > 100 µM | 5.07 µM (inactive) | > 100 µM (inactive) | – | > 100 µM (inactive) | > 100 µM (inactive) | > 100 µM (inactive) | > 100 µM (inactive) | > 100 µM (inactive) | > 100 µM (inactive) | > 100 µM (inactive) | 26.8 µM (inactive) | > 100 µM (inactive) | > 100 µM (inactive) | > 100 µM (inactive) | – |
| O=C(Cc1ccccc1)NS(=O)(=O)c1ccccc1 | > 100 µM (inactive) | > 100 µM (inactive) | > 100 µM (inactive) | > 100 µM (inactive) | – | > 100 µM (inactive) | > 100 µM (inactive) | – | > 100 µM (inactive) | > 100 µM (inactive) | – | > 100 µM (inactive) | > 100 µM (inactive) | > 100 µM (inactive) | > 100 µM (inactive) | > 100 µM (inactive) | > 100 µM (inactive) | > 100 µM (inactive) | – | > 100 µM (inactive) |
| COc1ccc2oc(=O)c3c(c2c1C)OC(C)(C)C=C3 | > 100 µM (inactive) | > 100 µM (inactive) | > 100 µM (inactive) | > 100 µM (inactive) | > 100 µM | > 100 µM (inactive) | – | > 100 µM (inactive) | 44.1 µM (inactive) | – | > 100 µM (inactive) | > 100 µM (inactive) | – | 23.2 µM (inactive) | > 100 µM (inactive) | > 100 µM (inactive) | > 100 µM (inactive) | > 100 µM (inactive) | > 100 µM (inactive) | > 100 µM (inactive) |
| CCn1c(CCl)nc2c1C(=O)c1ccccc1C2=O | 3.04 µM (inactive) | 3.72 µM (inactive) | – | 2.46 µM (inactive) | 1.66 µM | 2.43 µM (inactive) | 2.14 µM (inactive) | 2.17 µM (inactive) | 0.356 µM (active) | 1.66 µM (inactive) | 1.91 µM (inactive) | 2.12 µM (inactive) | 1.85 µM (inactive) | 2.61 µM (inactive) | 1.76 µM (inactive) | 0.515 µM (active) | 1.6 µM (inactive) | – | – | – |
| CC(=O)N(C(C)=O)c1c(N)n(C)c(=O)[nH]c1=O | > 100 µM (inactive) | > 100 µM (inactive) | > 100 µM (inactive) | > 100 µM (inactive) | > 100 µM | > 100 µM (inactive) | > 100 µM (inactive) | – | > 100 µM (inactive) | > 100 µM (inactive) | – | > 100 µM (inactive) | > 100 µM (inactive) | > 100 µM (inactive) | > 100 µM (inactive) | – | > 100 µM (inactive) | > 100 µM (inactive) | – | > 100 µM (inactive) |
| COC1=C(C(=O)OC(C)(C)C)[C@]2(C)C(C(=O)OC(C)(C)C)C(OC)=C(C(=O)OC(C)(C)C)[C@]2(C)C1C(=O)OC(C)(C)C (some centres undefined) | > 100 µM (inactive) | 69.3 µM (inactive) | 71.3 µM (inactive) | > 100 µM (inactive) | 53 µM | 24.9 µM (inactive) | 32.9 µM (inactive) | – | 33.9 µM (inactive) | 97.7 µM (inactive) | – | 31.3 µM (inactive) | > 100 µM (inactive) | > 100 µM (inactive) | – | > 100 µM (inactive) | > 100 µM (inactive) | > 100 µM (inactive) | – | > 100 µM (inactive) |
| C=C1C[C@H](O)[C@H]2C(C[Se]c3ccccc3)C(=O)O[C@@H]2[C@H]2[C@H](C)C(O)C[C@@H]12 (some centres undefined) | 33 µM (inactive) | 27.9 µM (inactive) | 71.6 µM (inactive) | 33.7 µM (inactive) | 13.8 µM | – | 29.3 µM (inactive) | – | 31.6 µM (inactive) | 38.1 µM (inactive) | 22.7 µM (inactive) | 23.9 µM (inactive) | 13.1 µM (inactive) | 67.6 µM (inactive) | 76.2 µM (inactive) | > 100 µM (inactive) | 21.8 µM (inactive) | – | 14.8 µM (inactive) | 21.2 µM (inactive) |
| CN(C)c1ccc(/C=C(/NC(=O)c2ccccc2)c2nc3cc(Cl)ccc3[nH]2)cc1 | 27.8 µM (inactive) | 48.9 µM (inactive) | 61.7 µM (inactive) | 87.3 µM (inactive) | 16.6 µM | 16 µM (inactive) | > 100 µM (inactive) | – | 20.9 µM (inactive) | 18.6 µM (inactive) | – | 19.1 µM (inactive) | 30.2 µM (inactive) | > 100 µM (inactive) | 83.9 µM (inactive) | 52.6 µM (inactive) | 47.9 µM (inactive) | 72.3 µM (inactive) | – | 18.3 µM (inactive) |
| Nc1ccccc1[S+]([O-])c1ccccc1 (centres undefined) | > 100 µM (inactive) | > 100 µM (inactive) | – | > 100 µM (inactive) | > 100 µM | > 100 µM (inactive) | 39.2 µM (inactive) | – | > 100 µM (inactive) | > 100 µM (inactive) | – | > 100 µM (inactive) | > 100 µM (inactive) | > 100 µM (inactive) | > 100 µM (inactive) | > 100 µM (inactive) | > 100 µM (inactive) | > 100 µM (inactive) | – | > 100 µM (inactive) |
| O=C(NCCCCCCCCNC(=O)c1cccc2ccccc12)c1cccc2ccccc12 | 4.89 µM (inactive) | 17.1 µM (inactive) | 18.2 µM (inactive) | 19.5 µM (inactive) | 97.5 µM | > 100 µM (inactive) | 4.34 µM (inactive) | > 100 µM (inactive) | > 100 µM (inactive) | 4.01 µM (inactive) | > 100 µM (inactive) | > 100 µM (inactive) | 2.25 µM (inactive) | 9.93 µM (inactive) | > 59 µM (inactive) | 10.7 µM (inactive) | 18.8 µM (inactive) | 17.1 µM (inactive) | – | > 77.8 µM (inactive) |
| CCC(C)CC(C)CC(C)/C=C(\C)C1=C(C)CC(C)(O)O1 (centres undefined) | 9.53 µM (inactive) | 87.5 µM (inactive) | 79.8 µM (inactive) | > 100 µM (inactive) | > 100 µM | 23.7 µM (inactive) | 18.3 µM (inactive) | – | 35.7 µM (inactive) | – | – | 24.4 µM (inactive) | 88.9 µM (inactive) | – | > 100 µM (inactive) | > 100 µM (inactive) | 90.4 µM (inactive) | > 100 µM (inactive) | – | > 100 µM (inactive) |
| CCC1(O)C(=O)OCc2c1cc1n(c2=O)Cc2cc3ccc(CO)cc3nc2-1 (centres undefined) | 1.99 µM (inactive) | 2.86 µM (inactive) | 2.97 µM (inactive) | 16.8 µM (inactive) | 15.6 µM | 2.57 µM (inactive) | 16.3 µM (inactive) | – | 0.322 µM (active) | 23.8 µM (inactive) | – | 7.08 µM (inactive) | 7.26 µM (inactive) | 0.995 µM (active) | > 78.5 µM (inactive) | 2.26 µM (inactive) | 1.53 µM (inactive) | 7.82 µM (inactive) | – | 1.83 µM (inactive) |
